Data on 59 molecules can be found in a melting point compilation (Tetko et al.; mined from patent text by program, amines drawn as free bases though some values may be those of a salt).

Usually melting point stands for the temperature, or range, at which the solid turns liquid. `CC(C)c1ccc(N(Cc2ccc(N(C)C)cc2)C(=O)C2CCOc3ccc(F)cc32)cc1` (centres undefined) displayed a melting point of 95 to 98 °C.
The molecule `COc1ccc(CC#N)cc1OC1CCCC1` had a melting point of 32 to 34 °C.
In the case of `CN(Cc1ccccc1)c1ncnc2c(N3CCOCC3)nc(N3CCC(NCc4ccccc4)CC3)nc12` it was 103 to 106 °C; in that of `CCCC(=O)c1cnn(C)c1S(=O)(=O)NC(=O)Nc1nc(C)nc(OC)n1`, 174 to 176 °C; in that of `C=C(C)CNC(=O)N1CC(Oc2ccc(C(F)(F)F)cc2)C1`, 101 to 102 °C.
Under `CCOC(Nc1ccccc1)(OCC)c1ccnc(C(=O)c2ccc(Cl)c(Cl)c2)c1` stands 113 to 114 °C.
`COc1cc2c(cc1OC)-c1c(-c3nc(-c4ccccc4)no3)c(-c3cc(C)c(O)c(C)c3)c(C)n1CC2` yielded a melting point of 191 to 193 °C.
`CN(C)C(=O)C(CCO)C1CCc2[nH]c3ccccc3c21` (centres undefined) showed a melting point of 135 to 137 °C.
`CC(=O)Nc1ccc(SC2SCC(O)C(O)C2O)cc1` (centres undefined): the melting point fell in the range of 226 to 233 °C.
As for `C[C@@H](NC(=O)c1sc(-c2ccc(Cl)cc2)nc1C(F)(F)F)[C@](O)(Cn1cncn1)c1ccc(F)cc1F`, the melting point is 78 to 79 °C.
`COC(=O)c1ccccc1N(C)C(=O)CBr` displayed a melting point of 80 to 82 °C.
`Cc1oc(-c2ccc(F)cc2)cc1COc1cccc(CSC(C)(C)C(=O)O)c1` gave a melting point of 134 to 135 °C.
Turning to `CCNC(=O)c1cccc([N+](=O)[O-])c1`, the melting point was 118 to 120 °C.
As to `COc1cc(OC)cc(C(=CC#N)c2ccc(OC)c([N+](=O)[O-])c2)c1`, the melting point fell in the range of 122 to 124 °C.
In the case of `CNC(=O)C(C)(C)C(O)(Cn1cncn1)c1ccc(Cl)cc1Cl` (centres undefined) it was 145 to 146 °C; in that of `CCCn1nc(C(C)(F)F)nc1Cc1ccc(-c2ccccc2-c2nnn[nH]2)nc1`, 200 °C.
In turn, `CON(c1ccc([N+](=O)[O-])cc1Cl)S(=O)(=O)c1ccc(Cl)c([N+](=O)[O-])c1` gave a melting point of 138 to 139 °C.
The molecule `COc1cccc2c(=O)c3c(O)cc(OCC4CO4)cc3oc12` (centres undefined) had a melting point of 182 °C.
Molecule `COc1ccc(Cn2nnnc2C(=O)Nc2cc(OCCCOc3ccc(C(C)=O)c(O)c3CCC(F)(F)F)c(Br)cc2C)cc1` displayed a melting point of 140 to 142 °C.
The molecule `Nc1cc(C(=O)c2ccccc2)ccc1N1CCCCC1` yielded a melting point of 99 to 100 °C.
Turning to `CC(C)(CO)NS(=O)(=O)c1cccc(NC(=O)c2cnn3c(C(F)(F)F)cc(-c4ccc(C(F)(F)F)cc4)nc23)c1`, the melting point came to 227 °C.
In the case of `CC(C)OC(=S)NC1(N=NC(C)(C)C)CCCCC1` it was 62 to 64 °C.
Molecule `COc1cc(OC)c2nc[nH]c(=O)c2c1` yielded a melting point of 280 to 282 °C.
Regarding `Cc1cc(C)cc(C(=O)N2CCN(C(=O)CN(CCO)C3CCN(Cc4ccccc4)CC3)C(c3ccc(Cl)c(Cl)c3)C2)c1` (racemic), the melting point was in the range of 70 to 73 °C.
`Nc1nc(N)c2cc(CCc3ccccc3)ccc2n1` gave a melting point of 178 to 180 °C.
In the case of `Cn1c(=O)[n+]([O-])c(-c2ccccc2)c2cc(Cl)ccc21` it was 254 °C.
The molecule `CCN1C(c2ccccc2C(=O)c2ccccc2)=N[C@@H]2CCCC[C@H]21` (relative stereo) returned a melting point of 80 to 83 °C.
On to `COc1cc2ncnc(N3CCN(C(=S)Nc4cc(O)nc(O)n4)CC3)c2cc1OC`, for which the melting point is 283 to 285 °C.
Consider `CC1(C)CC(=O)c2c(nc(Cc3ccc(N)cc3)c3[nH]c4ccccc4c23)C1`, for which the melting point was in the range of 123 to 124 °C.
In the case of `Cn1ccc(Nc2n[nH]c3ccc(-c4ncccc4Cl)cc23)n1` it was 190 to 191 °C.
In the case of `Nc1ncnc2c1c(-c1ccc(Oc3ccccc3)cc1)cn2CCO` it was 144 to 145 °C.
Molecule `CCCc1c2nc(C(=O)OC)cc(NS(=O)(=O)c3ccc(C)cc3)c2cc2c(=O)cc(C(=O)OCC)oc12` yielded a melting point of 219 °C.
Under `COc1ccc(C2=NN(C3CCN(S(=O)(=O)c4ccc(C)cc4)CC3)C(=O)[C@H]3CC=CC[C@@H]23)cc1Cl` (relative stereo) stands 198 to 199 °C; under `CCC(=O)Nc1nc2ccc(Cl)cc2nc1N`, 300 to 302 °C; under `O=C1Cc2ccccc2Oc2ccc(CC(O)(P(=O)(O)O)P(=O)(O)O)cc21`, 228 °C.
As to `COc1ccc(CN2CCC(c3cn(CCc4ccsc4)c4cc(F)ccc34)CC2)cc1C(=O)O`, the melting point is 228 to 229 °C.
For the molecule `CCCCc1nc2c(c(=O)[nH]1)CN(C(=O)C(C)(C)C)CC2`, the melting point fell in the range of 167 to 172 °C.
Consider `CC1c2cccc3c2N(CC3)c2ccccc2N1C(=O)CCBr` (centres undefined), for which the melting point lay in the range of 149 to 151 °C.
For the molecule `Cc1ccnc(-n2cc(C#N)ccc2=O)c1`, the melting point lay within 166 to 168 °C.
In the case of `ClC(Cl)=Cc1ccc(OCc2ccccc2)cc1` it was 74.5 to 76.5 °C; in that of `CC(C)(C)OC(=O)N1c2ccccc2CC1COc1ccc(CC2SC(=O)N(C(c3ccccc3)(c3ccccc3)c3ccccc3)C2=O)cc1` (centres undefined), 85.4 to 87.2 °C; in that of `CN1CCCC1Cc1cn(Cc2ccccc2)c2ccc(C(C#N)S(=O)(=O)N(C)C(c3ccccc3)c3ccccc3)cc12` (centres undefined), 152 to 155 °C.
Turning to `CCOC(=O)c1c(Nc2ccccc2C)n[nH]c1C`, the melting point fell in the range of 156 to 160 °C.
Under `CCCCCCCCCCCCCCC(O)=S` stands 60 to 62 °C; under `O=C(N[C@@H](Cc1ccc(OCc2ccccc2)cc1)C(=O)O)c1cn2cc(/C=C/c3ccccc3)ccc2n1`, 262 to 263 °C.
Turning to `C=CCc1cc(CC(=O)OC)ccc1OCc1ccc2ccccc2n1`, the melting point turned out to be 71 °C.
In the case of `Oc1cc(-c2nn3c(c2Cl)CCCC3)c(F)cc1Cl`, the melting point was in the range of 177 to 178 °C.
Regarding `N#Cc1ccc(SC2SCC(O)C(O)C2O)cc1` (centres undefined), the melting point was found to be 175 °C.
`O=C(O)CCn1c(=O)n(CCN2CCN(c3ccc(F)cc3)CC2)c(=O)c2cscc21` showed a melting point of 202 to 203 °C.
The molecule `CCOC(=O)c1ncn2c1[C@@H]1CCCN1C(=O)c1c(Cl)cccc1-2` yielded a melting point of 182 to 184 °C.
In the case of `CCN(CC)c1ccc(NC(=O)N(C[C@H]2CC[C@H](CN(C(=O)Nc3ccc(N(CC)CC)cc3)C3CCCCC3)CC2)C2CCCCC2)cc1` it was 212 to 217 °C; in that of `CCC(=O)Nc1ccc(Cl)c(-n2nc(CC)n(Cc3ccc(-c4ccccc4S(=O)(=O)NC(=O)OC(C)(C)C)cc3F)c2=O)c1`, 142 to 144 °C; in that of `CC(C)n1nc(-c2ncc(O)nc2-c2ccccc2)ccc1=O`, 225 to 227 °C.
In the case of `CCC(=O)C(=Cc1ccccc1)c1cc(C)cs1` it was 98 to 99 °C.
`O=C1NC(=O)C(c2ccccc2)(c2ccccc2)N2CCN(C(=O)OCc3ccccc3)CC12` (centres undefined): the melting point is 151 to 152 °C.
`CC(C)NC(=O)c1coc(CN2C(=O)C3(COc4cc5c(cc43)OCO5)c3ccccc32)n1` (centres undefined) came in with a melting point of 182 to 183 °C.
`COC(=O)C(Oc1ccccc1)c1ccc(I)cc1` (centres undefined) showed a melting point of 68 to 71 °C.
Under `COc1ccccc1N1CCN(CCn2c(=O)c3sccc3n(C)c2=O)CC1` stands 149 to 151 °C; under `COc1c(CC#N)cccc1CC#N`, 58 to 59.5 °C.
